Columns and labels:
[1] = Glucose transduction in PBS, relative fluorescent intensity (FIG. 18 format)
Experimental: FIG. 18 is a graph showing Nile Blue boronate's transduction of glucose in PBS.
The figures provided herein further illustrate various embodiments of the invention and their properties in order to further facilitate artisans' making and using the invention. For example, using the graphic format provided in FIG. 18, experiments confirming properties of Nile Blue were performed with the following results: […]

Water solubility = type: physicochemical
Description: Exemplary long wavelength glucose-sensing molecule containing an oxazine (Nile Blue) coupled with a phenyl boronate suitable for detection of glucose, following polymer incorporation, in vivo is shown in FIGS. 2 and 3. FIG. 2 provides a comparison of fluorescent excitations of representative fluorophores including the oxazine Nile Blue. The excitation and emission profile of anthracene based compounds are well below that of Nile Blue's fluorescent profile (see, e.g., FIG. 3). […] It is feasible to substitute other oxazines of similar structure for Nile Blue.

[2] = Glucose transduction of Nile Blue boronate: fluorescence in DMSO/PBS, ex 621 nm, em 671 nm; conditions: for fluorescent intensity increase at 671 nm: ex 621 nm, relative to blank, listed as 1; for fluorescent intensity increase at 671 nm / increase in fluorescent intensity at 671 nm: DMSO/PBS; for increase in fluorescent intensity at 671 nm: separate batch
Experimental: A typical embodiment of the invention uses Nile Blue as an illustrative oxazine-based fluorophore.
Results: After work-up, the reaction was concentrated to dryness. A sample of the blue residue (˜1 mg), dissolved in DMSO (1 ml), was aliquoted (100 □ L) and dissolved in PBS (20 mL). […] A control fluorescence experiment was performed containing Nile Blue A using the same conditions as mentioned above.
(§1) To a round bottom flask, equipped with a reflux condenser under N2, containing Nile Blue perchlorate salt (42 mg, 0.1 mmol), boronate (28 mg, 0.1 mmoles) and K2CO3 (˜1 g) was added CH3CN (25 mL). The reaction was heated at reflux for 24 hours after which the solvent evaporated and the reaction went to dryness. The sample of the reaction mixture (1 mg, 2.21 mole) was dissolved in DMSO (1 mL). An aliquot (100 μL) was dissolved in PBS (20 mL). A sample of this solution (3 mL) was placed into the fluorolog and fluorescent measurements were made (ex=621 nm, slits at 10 and 20) at various glucose concentrations (0 mg/dL, 150 mg/dL, 300 mg/dL and 450 mg/dL) with a sampling interval of 45 min.
as §1, with “(22” for “(28”, “The reaction was heated at reflux for 24 hours after which the solvent evaporated and the reaction went to dryness.” left out, “[…])” for “mole)”
as §1, with “[…])” for “mole)”

[3] = Fluorescence excitation and emission wavelengths; type: physicochemical; conditions: aqueous PBS; for maximum emission wavelength: irradiated at 621 nm
Description: An exemplary oxazine-based biosensor molecule of the present invention utilizes Nile blue as the fluorophore as shown in FIG. 2. The Nile blue-based biosensor molecule has an excitation wavelength of about 625 nm and a maximum emission wavelength of about 675 nm (see, e.g. FIGS. 8). Similar oxazine-based fluorophores suitable for use in embodiments of the present invention may include one or more functional groups selected from the following: aliphatic, aromatic, haloalkane, alcohol, ether, amine, cyano, nitro group, aldehyde, ketone, ester, carboxylic acid, sulfonic acid and phosphoric acid functional groups.
As illustrated above, the oxazine-based molecules in accordance with embodiments of the invention solve the problem of obtaining optimal optical transmission of fluorescence via implanted fluorescent reporter systems of in-vivo polyhydroxylate analyte concentrations. […] Particular embodiments of the biosensor molecules of the invention have at least one maximum wavelength in their emission spectra that is greater than about 600 nm and have at least one wavelength in their emission spectra that is greater than about 650 nm. An exemplary oxazine-based biosensor molecule in accordance with embodiments of the invention utilizes Nile Blue as a fluorophore. This Nile Blue biosensor molecule generally has an excitation wavelength of about 625 nm and an emission wavelength of about 675 nm in an aqueous Phosphate Buffered Saline (PBS) solution. Particular embodiments of the invention, however, may emit in the near infrared (IR) region of the spectrum.
Results: After work-up, the reaction was concentrated to dryness. A sample of the blue residue (˜1 mg), dissolved in DMSO (1 ml), was aliquoted (100 □ L) and dissolved in PBS (20 mL). A sample PBS solution (3 mL) contained in a cuvette and irradiated at 621 nm, gave rise to the appearance of a maximum emission peak at 671 nm. Successive additions of glucose (150 mg/dL), added to the cuvette, led to an increase in […] intensity, at 671 nm, after each addition. The first addition of glucose gave rise to a 7.5% increase in fluorescence at 671 nm. After the second addition of glucose, the intensity rose 14.3% relative to the blank. Addition of the third aliquot of glucose gave an 18.8% rise in fluorescent intensity relative to the blank. […] A control fluorescence experiment was performed containing Nile Blue A using the same conditions as mentioned above.

For Nile Blue A, the relative fluorescent intensity ([1]; glucose 0 mg/dl) was 1.0, the relative fluorescent intensity ([1]; glucose 150 mg/dl) was 1.085 and the relative fluorescent intensity ([1]; glucose 300 mg/dl) was 1.239. The relative fluorescent intensity ([1]; glucose 450 mg/dl) was 1.398 and the relative fluorescent intensity ([1]; glucose 1000 mg/dl) was 1.513.

For `CC[N+](CC)=c1ccc2nc3c(cc(N)c4ccccc43)oc-2c1` [Nile Blue, Nile Blue A, reference compound], the solubility in water (Water solubility) was “highly soluble in water” and the “glucose transduction (control experiment)” value ([2]; DMSO/PBS solutions, same conditions as the boronate) was “incapable of transducing glucose”.

For Nile Blue Boronate, the “fluorescent intensity increase at 671 nm” value ([2]; glucose 150 mg/dL) was 7.5%, the “fluorescent intensity increase at 671 nm” value ([2]; glucose 300 mg/dL) was 14.3% and the “fluorescent intensity increase at 671 nm” value ([2]; glucose 450 mg/dL) was 18.8%. For the same molecule, the glucose transduction ([2]; in water) was “transduces glucose exceptionally well”, the “increase in fluorescent intensity at 671 nm” value ([2]; glucose 150 mg/dL (first addition)) was 23.4% and the “increase in fluorescent intensity at 671 nm” value ([2]; glucose 300 mg/dL (second addition)) was 37.8%. For the same molecule, the “increase in fluorescent intensity at 671 nm” value ([2]; glucose 450 mg/dL (third addition)) was 47.4%, the excitation wavelength [3] was “about 625 nm” and the maximum emission wavelength ([3]; listed as 1) was 671 nm. For the same molecule, the maximum emission wavelength ([3]; listed as Nile Blue biosensor molecule) was “about 675 nm” and the maximum emission wavelength ([3]; listed as Nile blue-based biosensor molecule) was “about 675 nm”.

Reference: US6766183B2, “Long wave fluorophore sensor compounds and other fluorescent sensor compounds in polymers” (Medtronic MiniMed, Inc., priority 1995, dated 2004)
